The results in this text go back to patent publication US11168249B1, “Luminescent polydentate polycyclic compounds for metal ions” (priority 2012, dated 2021).

SMILES strings stand for the structures. “Also recorded” adds a separate entry of the source.

What all share (type): physicochemical
Series [1] is described as follows: Normalized emission spectra of D1 (L) and complexes in dry acetonitrile (FIG. 22). The following applies: D1 0.00013 M, metal ion 0.00012 M. As to the method:
The concentration of D1 was 0.00013 M, and the metal ion concentration was 0.00012 M. The metal ions are added as perchlorates or acetates. The y-axis is luminescence intensity, and the x-axis is wavelength in nanometers. The free ligand L had maximum emission at 470 nm. The L+Ca(II) complex had maximum emission at 526 nm. The L+Zn(II) complex had maximum emission at 581 nm. The L+trifluoroacetate complex had maximum emission at 592 nm. The L+H^+ complex had maximum emission at 691 nm. The L+H^+ complex was formed using aluminum chloride dissolved in TFA and diluted with dry MeCN, and it is likely that HCl was produced in situ, and that this is protonating the ligand.

Series [2] can be described thus: Fluorescence color of D1 in acetonitrile solution with and without metal ions under UV 365 nm (FIG. 1). The following applies: D1 0.004 M. The protocol:
FIG. 1 is a set of pictures showing the change in color of derivative compound D1 in the absence and presence of various metal ions (Mg^2+, Sr^2+, Ca^2+, Cd^2+, Zn^2+, H^+) in solution. The solvent was acetonitrile, the concentration of D1 was 0.004 M, and the metal ion concentration was 0.04 M. The metal ions are added as perchlorates or acetates. The solutions were exposed to UV light having an excitation wavelength of 365 nm.
With no metal, the D1 solution was blue. With Mg^2+, the solution was a blue-green color. With Sr^2+, the solution was a green-blue color. With Ca^2+, the solution was a green color. With Cd^2+, the solution was an olive green color. With Zn^2+, the solution was a yellow-orange color. With H^+, the solution was a red color.

A short description of series [3]: Normalized emission spectra of D1 (L) and complexes in the solid state (FIG. 23). From the text:
The y-axis is luminescence intensity, and the x-axis is wavelength in nanometers. The free ligand L had maximum emission at 457 nm. The L+Ca complex had maximum emission at 519 nm. The L+Zn complex had maximum emission at 556 nm. Al/H^+ complex had maximum emission at 651 nm. This latter complex is a protonated ligand obtained by using aluminum perchlorate, which produced acid in situ.
The curve labeled Al/H+(N) was obtained by using protonated ligand obtained by treating the ligand with aluminum perchlorate.

A short description of series [4]: Fluorescence color in the solid state with and without metal ions or acids under UV 365 nm (FIGS. 2, 5, 6, 7, 24, 25). From the text:
FIG. 2 is a set of pictures showing the change in color of derivative compound D1 in the absence and presence of various metal ions (Ca^2+, Sr^2+, Cd^2+, Zn^2+, Ba^2+, Ha^+, Hb^+, Ni^2+) in the solid state. The sample labeled Ha^+ was isolated from a KOH/ethanol solution after treatment with trifluoroacetic acid (TFA). The sample labeled Hb^+ was obtained by using aluminum perchlorate, which produced acid (H^+) due to an unexpected hydrolysis reaction with the medium.
FIG. 5 is a set of pictures showing the change in color of derivative compound D1 in the absence and presence of various metal ions or acids (Ca^2+, Zn^2+, H^+, Pb^2+) in the solid state, both under ordinary light and under UV light (365 nm). Perchlorate salts were used. When the aluminum salt was used, an unexpected hydrolysis produced acid (H^+) which protonated the ligand.
FIG. 6 is a set of pictures showing the change in color of derivative compound D1 in the absence and presence of various metal ions or acids (H^+, Co^2+, Ni^2+, Cu^2+) in the solid state, both under ordinary light and under UV light (365 nm). Perchlorate salts were used.
FIG. 7 is a set of pictures showing the change in color of derivative compound D1 in the absence and presence of various metal ions or acids (AgNO3, Hg^2+, Pb^2+) and of the free compound D7 (no metal ion) in the solid state, both under ordinary light and under UV light (365 nm).
FIG. 24 is a set of pictures showing the change in color of complexes of D1 with perchlorate salts of various metal ions (Ca^2+, Sr^2+, Cd^2+) in the solid state, both under ordinary light and under UV light (365 nm).
FIG. 25 is a set of pictures showing the change in color of complexes of D1 with salts of various metal ions (Zn^2+, Ba^2+, Ha^+, Hb^+) in the solid state, both under ordinary light and under UV light (365 nm). The zinc and barium are perchlorate salts. The complex labeled “From KOH/EtOH/TFA” was obtained from a solution of KOH and ethanol upon addition of TFA. It is unclear what is causing the orange color, but it is most likely acid, therefore the label “Ha^+”. The HClO4 complex was obtained by using aluminum perchlorate, which produced acid (H^+) that protonated the ligand.
With no metal, the D1 powder was blue. With Ca^2+, the powder was a blue-green color. With Sr^2+, the powder was a green color. With Cd^2+, the powder was a yellow-green color. With Zn^2+, the powder was a yellow color. With Ba^2+, the powder was a dark yellow color. […] Powder isolated from solutions containing AlCl3 or Al(ClO4)3 was a red color. […] With Ni^2+, the powder was black (i.e. fluorescence was quenched).
FIG. 5 is a set of pictures showing fluorescence of D1 in the solid state, under ordinary light (top row) and under UV light (365 nm) (bottom row). In column A, the free ligand sample (i.e. no metal ions) is blue. In column B with Ca(II), the powder is green. In column C with Zn(II), the powder is yellow. In column D with Al(III), the powder is red. Again, this appears to be due to acid (H^+). In column E with Pb(II), the powder is non-fluorescent.
FIG. 6 is a set of pictures showing fluorescence of D1 in the solid state, under ordinary light (top row) and under UV light (365 nm) (bottom row). In the first column ligand treated with La(III) perchlorate produced a powder that fluoresces red. […] In the second column with Co(II), the powder is non-fluorescent. In the third column with Ni(II), the powder is non-fluorescent. In the fourth column with Cu(II), the powder is non-fluorescent.
FIG. 7 is a set of pictures showing fluorescence of D1 in the solid state, under ordinary light (top row) and under UV light (365 nm) (bottom row). In the first column with silver nitrate (AgNO3), the powder is non-fluorescent. […] In the third column with Pb(II), the powder is non-fluorescent. In the fourth column, the free compound D7 is shown, and is non-fluorescent. […]

Series [5] is described as follows: Fluorescence color of D1 in acetonitrile solution with one equivalent of metal perchlorate under UV 365 nm (FIG. 4). As to the method:
FIG. 4 is a set of pictures showing the change in color of derivative compound D1 in the absence and presence of various metal ions (Ca^2+, Zn^2+, H^+, Pb^2+) in solution (perchlorate salts), both under ordinary light and under UV light (365 nm). The solvent was acetonitrile, the concentration of D1 was 0.0001 M, and one equivalent of the metal perchlorate salt was added. For H^+, an aluminum perchlorate salt was used, which produced acid (H^+) that protonated the ligand.
Under UV light, the D1 solution alone is blue. With Ca(II), the solution is green. With Zn(II), the solution is yellow-orange. With Al(III) perchlorate, the solution is red. This red color resulted from an unexpected hydrolysis reaction that produced acid (H^+). The protonated ligand provided the red color. With Pb(II), the solution is black, i.e. the blue color that would other be visible has been quenched.

The nature of series [6]: Fluorescent properties of L4 in water/chloroform two-layer vials with metal ions and acid (FIG. 8). From the text: FIG. 8 is a set of pictures showing the fluorescent properties of compound L4 in two different solvents (water and chloroform) in the presence of different metal ions o and acid (NaCl, CaCl2), HCl) under ordinary light and under UV light (365 nm). The concentration of L4 was 0.00032 M. Vial #2 used aqueous sodium chloride, Vial #3 included aqueous calcium chloride, and Vial #4 included dilute hydrochloric acid.
FIG. 8 is a set of pictures showing the fluorescent properties of compound L4 in two different solvents (water and chloroform) under ordinary light and under UV light (365 nm). Vial #1 contains only L4, Vial #2 contains sodium chloride, Vial #3 contains calcium chloride, and Vial #4 contains hydrochloric acid. The two layers in each vial were mixed, then allowed to separate and observed. […] There is no reaction to sodium in Vial #2. […] It is believed that this migration will only occur with a metal ion of the proper size and sufficiently high ionic charge. […] Interference from acid is, therefore, not expected to cause false positive results.

Regarding `COc1cccc2cc3c(nc12)-c1nc2c(OC)cccc2cc1CC3` [Compound D1, 8,8′-Dimethoxy-3,3′-dimethylene-2,2′-biquinoline], the figures for the maximum emission in series [1] and in series [3] were 470 nm and 457 nm, respectively. The color of solution result in series [2] (Ca^2+ 0.04 M) is “green”; in series [2] (Cd^2+ 0.04 M), “olive green”; in series [2] (H^+), “red”; in series [2] (Mg^2+ 0.04 M) it was “blue-green”; in series [2] (Sr^2+ 0.04 M) it was “green-blue”; in series [2] (Zn^2+ 0.04 M), “yellow-orange”. In addition, the color of solution result in series [2] (no metal) is listed as “blue”. Further, the fluorescence of powder entry is “blue” in series [4] (free compound (no metal ions)); “red” in series [4] (from AlCl3 or Al(ClO4)3 (acid H^+, protonated ligand; Hb^+/HClO4)); “orange” in series [4] (isolated from ethanolic KOH treated with TFA (Ha^+)); “red” in series [4] (treated with La(III) perchlorate (acid H^+, protonated ligand)); “blue-green” in series [4] (with Ca^2+); “yellow-green” in series [4] (with Cd^2+). In addition, the fluorescence of powder result in series [4] (with Co(II)) is reported as “non-fluorescent”; in series [4] (with Cu(II)), “non-fluorescent”; in series [4] (with Hg(II)), “barely fluoresces”; in series [4] (with Ni^2+), “black; also recorded: non-fluorescent”; in series [4] (with Pb(II)), “non-fluorescent”; in series [4] (with Sr^2+) it was “green”. Also, the fluorescence of powder result in series [4] (with Zn^2+) is on record as “yellow”; in series [4] (with silver nitrate (AgNO3)) it was “non-fluorescent”. Moreover, the “color of solution under UV light” value in series [5] (D1 0.0001 M alone) is “blue”; in series [5] (D1 0.0001 M, Al(III) perchlorate (produced acid H^+, protonated ligand)), “red”; in series [5] (D1 0.0001 M, one equivalent Ca(II) perchlorate), “green”; in series [5] (D1 0.0001 M, one equivalent Pb(II) perchlorate), “black”; in series [5] (D1 0.0001 M, one equivalent Zn(II) perchlorate) it was “yellow-orange”.

On to `CCCCc1c2c(nc3c1CCc1cc4cccc(OCC(=O)OC)c4nc1-3)-c1nc3c(OCC(=O)OC)cccc3cc1CC2` [Compound L4, 8-butyl-1,15-bis(methoxycarbonylmethoxy)-diquinolino[2,3-c:3′,2′-h]-6,7,9,10-tetrahydroacridine], for which, in series [6] (Vial #1, only L4 0.00032 M), the “layer in which the compound is present” value is recorded as “chloroform layer”. Besides, in series [6] (Vial #2, aqueous sodium chloride, L4 0.00032 M), the response to sodium result is given as “no reaction”. Also, the “migration of the complex between layers” value in series [6] (Vial #3, aqueous calcium chloride) is reported as “migrated to the water layer”. For the same molecule, the fluorescent response result in series [6] (Vial #3, aqueous calcium chloride (Ca^2+), UV 365 nm) is “intense blue”. Also, the fluorescence entry in series [6] (Vial #4, dilute hydrochloric acid, UV 365 nm) is recorded as “green”.
